{
  "source": "patent US9630977B2",
  "about": "“Cephalosporin derivatives and pharmaceutical compositions thereof” (Legochem Biosciences, Inc., priority 2011, dated 2017)",
  "data": [
    {"tested_on": "A. baumannii 49", "assay": "In vitro antibacterial activity test (broth microdilution)", "format": "cell-based", "details": "Acinetobacter baumannii, 49, A. baumannii 49", "outline": "(§1)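 Stocks at 10,240 ug/mL in DMSO, serially diluted in DMSO then water to final 0.0626–128 ug/mL (2.5% V/V DMSO). CLSI broth microdilution; MIC90, ug/mL.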", "units": {"MIC90": "µg/mL"}, "values": [
      {"compound": "CC(C)(O/N=C(\\C(=O)N[C@@H]1C(=O)N2C(C(=O)[O-])=C(C[n+]3cnc(NCCN)c(NCCNC(=O)c4cc(=O)c(O)cn4O)c3)CSC12)c1csc(N)n1)C(=O)O", "note": "(stereo partly shown) [Compound 5]", "MIC90": "> 128"}
    ]},
    {"tested_on": "P. aeruginosa 6065Y", "assay": "In vitro antibacterial activity test (broth microdilution)", "format": "cell-based", "details": "Pseudomonas aeruginosa, 6065Y", "outline": "as §1", "units": {"MIC90": "µg/mL"}, "values": [
      {"compound": "CC(C)(O/N=C(\\C(=O)N[C@@H]1C(=O)N2C(C(=O)[O-])=C(C[n+]3cnc(NCCN)c(NCCNC(=O)c4cc(=O)c(O)cn4O)c3)CSC12)c1csc(N)n1)C(=O)O", "note": "(stereo partly shown) [Compound 5]", "MIC90": 4}
    ]},
    {"tested_on": "E. cloacae β19", "assay": "In vitro antibacterial activity test (broth microdilution)", "format": "cell-based", "details": "Enterobacter cloacae", "outline": "as §1", "units": {"MIC90": "µg/mL"}, "values": [
      {"compound": "CC(C)(O/N=C(\\C(=O)N[C@@H]1C(=O)N2C(C(=O)[O-])=C(C[n+]3cnc(NCCN)c(NCCNC(=O)c4cc(=O)c(O)cn4O)c3)CSC12)c1csc(N)n1)C(=O)O", "note": "(stereo partly shown) [Compound 5]", "MIC90": 0.5}
    ]},
    {"tested_on": "M. catarrhalis 2524", "assay": "In vitro antibacterial activity test (broth microdilution)", "format": "cell-based", "details": "Moraxella catarrhalis, 2524", "outline": "as §1", "units": {"MIC90": "µg/mL"}, "values": [
      {"compound": "CC(C)(O/N=C(\\C(=O)N[C@@H]1C(=O)N2C(C(=O)[O-])=C(C[n+]3cnc(NCCN)c(NCCNC(=O)c4cc(=O)c(O)cn4O)c3)CSC12)c1csc(N)n1)C(=O)O", "note": "(stereo partly shown) [Compound 5]", "MIC90": 0.25}
    ]},
    {"tested_on": "K. pneumoniae β9", "assay": "In vitro antibacterial activity test (broth microdilution)", "format": "cell-based", "details": "Klebsiella pneumoniae", "outline": "as §1", "units": {"MIC90": "µg/mL"}, "values": [
      {"compound": "CC(C)(O/N=C(\\C(=O)N[C@@H]1C(=O)N2C(C(=O)[O-])=C(C[n+]3cnc(NCCN)c(NCCNC(=O)c4cc(=O)c(O)cn4O)c3)CSC12)c1csc(N)n1)C(=O)O", "note": "(stereo partly shown) [Compound 5]", "MIC90": "< 0.0625"}
    ]},
    {"tested_on": "P. aeruginosa 40", "assay": "In vitro antibacterial activity test (broth microdilution)", "format": "cell-based", "details": "Pseudomonas aeruginosa, 40", "outline": "as §1", "units": {"MIC90": "µg/mL"}, "values": [
      {"compound": "CC(C)(O/N=C(\\C(=O)N[C@@H]1C(=O)N2C(C(=O)[O-])=C(C[n+]3cnc(NCCN)c(NCCNC(=O)c4cc(=O)c(O)cn4O)c3)CSC12)c1csc(N)n1)C(=O)O", "note": "(stereo partly shown) [Compound 5]", "MIC90": 1}
    ]},
    {"tested_on": "E. coli AG100", "assay": "In vitro antibacterial activity test (broth microdilution)", "format": "cell-based", "details": "Escherichia coli, AG100", "outline": "as §1", "units": {"MIC90": "µg/mL"}, "values": [
      {"compound": "CC(C)(O/N=C(\\C(=O)N[C@@H]1C(=O)N2C(C(=O)[O-])=C(C[n+]3cnc(NCCN)c(NCCNC(=O)c4cc(=O)c(O)cn4O)c3)CSC12)c1csc(N)n1)C(=O)O", "note": "(stereo partly shown) [Compound 5]", "MIC90": "< 0.0625"}
    ]},
    {"tested_on": "P. aeruginosa 37", "assay": "In vitro antibacterial activity test (broth microdilution)", "format": "cell-based", "details": "Pseudomonas aeruginosa, 37, P. aeruginosa 37", "outline": "as §1", "units": {"MIC90": "µg/mL"}, "values": [
      {"compound": "CC(C)(O/N=C(\\C(=O)N[C@@H]1C(=O)N2C(C(=O)[O-])=C(C[n+]3cnc(NCCN)c(NCCNC(=O)c4cc(=O)c(O)cn4O)c3)CSC12)c1csc(N)n1)C(=O)O", "note": "(stereo partly shown) [Compound 5]", "MIC90": 1}
    ]},
    {"tested_on": "K. pneumoniae 2011E", "assay": "In vitro antibacterial activity test (broth microdilution)", "format": "cell-based", "details": "Klebsiella pneumoniae, 2011E", "outline": "as §1", "units": {"MIC90": "µg/mL"}, "values": [
      {"compound": "CC(C)(O/N=C(\\C(=O)N[C@@H]1C(=O)N2C(C(=O)[O-])=C(C[n+]3cnc(NCCN)c(NCCNC(=O)c4cc(=O)c(O)cn4O)c3)CSC12)c1csc(N)n1)C(=O)O", "note": "(stereo partly shown) [Compound 5]", "MIC90": 2}
    ]},
    {"tested_on": "K. pneumoniae β13", "assay": "In vitro antibacterial activity test (broth microdilution)", "format": "cell-based", "details": "Klebsiella pneumoniae", "outline": "as §1", "units": {"MIC90": "µg/mL"}, "values": [
      {"compound": "CC(C)(O/N=C(\\C(=O)N[C@@H]1C(=O)N2C(C(=O)[O-])=C(C[n+]3cnc(NCCN)c(NCCNC(=O)c4cc(=O)c(O)cn4O)c3)CSC12)c1csc(N)n1)C(=O)O", "note": "(stereo partly shown) [Compound 5]", "MIC90": 0.5}
    ]},
    {"tested_on": "K. pneumoniae β11", "assay": "In vitro antibacterial activity test (broth microdilution)", "format": "cell-based", "details": "Klebsiella pneumoniae", "outline": "as §1", "units": {"MIC90": "µg/mL"}, "values": [
      {"compound": "CC(C)(O/N=C(\\C(=O)N[C@@H]1C(=O)N2C(C(=O)[O-])=C(C[n+]3cnc(NCCN)c(NCCNC(=O)c4cc(=O)c(O)cn4O)c3)CSC12)c1csc(N)n1)C(=O)O", "note": "(stereo partly shown) [Compound 5]", "MIC90": 2}
    ]},
    {"tested_on": "A. baumannii 52", "assay": "In vitro antibacterial activity test (broth microdilution)", "format": "cell-based", "details": "Acinetobacter baumannii, 52", "outline": "as §1", "units": {"MIC90": "µg/mL"}, "values": [
      {"compound": "CC(C)(O/N=C(\\C(=O)N[C@@H]1C(=O)N2C(C(=O)[O-])=C(C[n+]3cnc(NCCN)c(NCCNC(=O)c4cc(=O)c(O)cn4O)c3)CSC12)c1csc(N)n1)C(=O)O", "note": "(stereo partly shown) [Compound 5]", "MIC90": "> 128"}
    ]},
    {"tested_on": "P. aeruginosa 1912E", "assay": "In vitro antibacterial activity test (broth microdilution)", "format": "cell-based", "details": "Pseudomonas aeruginosa, 1912E", "outline": "as §1", "units": {"MIC90": "µg/mL"}, "values": [
      {"compound": "CC(C)(O/N=C(\\C(=O)N[C@@H]1C(=O)N2C(C(=O)[O-])=C(C[n+]3cnc(NCCN)c(NCCNC(=O)c4cc(=O)c(O)cn4O)c3)CSC12)c1csc(N)n1)C(=O)O", "note": "(stereo partly shown) [Compound 5]", "MIC90": 1}
    ]},
    {"tested_on": "P. aeruginosa 43", "assay": "In vitro antibacterial activity test (broth microdilution)", "format": "cell-based", "details": "Pseudomonas aeruginosa, 43", "outline": "as §1", "units": {"MIC90": "µg/mL"}, "values": [
      {"compound": "CC(C)(O/N=C(\\C(=O)N[C@@H]1C(=O)N2C(C(=O)[O-])=C(C[n+]3cnc(NCCN)c(NCCNC(=O)c4cc(=O)c(O)cn4O)c3)CSC12)c1csc(N)n1)C(=O)O", "note": "(stereo partly shown) [Compound 5]", "MIC90": 0.25}
    ]},
    {"tested_on": "K. pneumoniae β10", "assay": "In vitro antibacterial activity test (broth microdilution)", "format": "cell-based", "details": "Klebsiella pneumoniae", "outline": "as §1", "units": {"MIC90": "µg/mL"}, "values": [
      {"compound": "CC(C)(O/N=C(\\C(=O)N[C@@H]1C(=O)N2C(C(=O)[O-])=C(C[n+]3cnc(NCCN)c(NCCNC(=O)c4cc(=O)c(O)cn4O)c3)CSC12)c1csc(N)n1)C(=O)O", "note": "(stereo partly shown) [Compound 5]", "MIC90": 1}
    ]},
    {"tested_on": "K. pneumoniae β14", "assay": "In vitro antibacterial activity test (broth microdilution)", "format": "cell-based", "details": "Klebsiella pneumoniae", "outline": "as §1", "units": {"MIC90": "µg/mL"}, "values": [
      {"compound": "CC(C)(O/N=C(\\C(=O)N[C@@H]1C(=O)N2C(C(=O)[O-])=C(C[n+]3cnc(NCCN)c(NCCNC(=O)c4cc(=O)c(O)cn4O)c3)CSC12)c1csc(N)n1)C(=O)O", "note": "(stereo partly shown) [Compound 5]", "MIC90": 8}
    ]},
    {"tested_on": "E. coli β4", "assay": "In vitro antibacterial activity test (broth microdilution)", "format": "cell-based", "details": "Escherichia coli", "outline": "as §1", "units": {"MIC90": "µg/mL"}, "values": [
      {"compound": "CC(C)(O/N=C(\\C(=O)N[C@@H]1C(=O)N2C(C(=O)[O-])=C(C[n+]3cnc(NCCN)c(NCCNC(=O)c4cc(=O)c(O)cn4O)c3)CSC12)c1csc(N)n1)C(=O)O", "note": "(stereo partly shown) [Compound 5]", "MIC90": 0.5}
    ]},
    {"tested_on": "A. calcoaceticus ATCC15473", "assay": "In vitro antibacterial activity test (broth microdilution)", "format": "cell-based", "details": "Acinetobacter calcoaceticus, ATCC15473, A. calcoaceticus ATCC15473", "outline": "as §1", "units": {"MIC90": "µg/mL"}, "values": [
      {"compound": "CC(C)(O/N=C(\\C(=O)N[C@@H]1C(=O)N2C(C(=O)[O-])=C(C[n+]3cnc(NCCN)c(NCCNC(=O)c4cc(=O)c(O)cn4O)c3)CSC12)c1csc(N)n1)C(=O)O", "note": "(stereo partly shown) [Compound 5]", "MIC90": 2}
    ]},
    {"tested_on": "A. baumannii 46", "assay": "In vitro antibacterial activity test (broth microdilution)", "format": "cell-based", "details": "Acinetobacter baumannii, 46, A. baumannii 46", "outline": "as §1", "units": {"MIC90": "µg/mL"}, "values": [
      {"compound": "CC(C)(O/N=C(\\C(=O)N[C@@H]1C(=O)N2C(C(=O)[O-])=C(C[n+]3cnc(NCCN)c(NCCNC(=O)c4cc(=O)c(O)cn4O)c3)CSC12)c1csc(N)n1)C(=O)O", "note": "(stereo partly shown) [Compound 5]", "MIC90": 16}
    ]}
  ]
}
